Each structure is given as a SMILES string.

The test deals with beta-TC6 cells. Briefly: Insulin HTRF assay, relative activity Ar normalized to sunitinib. Type of test: cell-based. The settings on record: Mus musculus, normalized to positive control sunitinib (5 µM = 100%), Table 10. Summed up: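 Relative activity Ar was scaled between 0% and 100% controls, with sunitinib at 5 µM f.c. as reference. Insulin released by beta-TC6 cells was quantified by sandwich HTRF (Eu-cryptate/XL665 antibodies, 120 min RT). Cells had been seeded 24 or 48 h, then treated 2–4 h at 37°C in induction buffer, 0.5% DMSO.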
(In general: In TR-FRET formats the signal depends on donor and acceptor labels being close together.)
Regarding `COc1cc(-c2cn3c(-c4ccc5ncccc5c4)cnc3cn2)ccc1O` [compound 441, 2-methoxy-4-[3-(6-quinolyl)imidazo[1,2-a]pyrazin-6-yl]phenol], the Emax – broadly, the size of the effect at its maximum, as opposed to the concentration needed – fell in the range of 20 to 50%. Next, `CNc1ccc2ncc(/C=C\CCCO)n2n1` [compound 59, (Z)-5-[6-(methylamino)imidazo[1,2-b]pyridazin-3-yl]pent-4-en-1-ol]: 10 to 20%; `Oc1ccc(-c2cn3c(-c4cccs4)cnc3cn2)cc1` [compound 417, 4-[3-(2-thienyl)imidazo[1,2-a]pyrazin-6-yl]phenol]: 50 to 100%; `CC(C)Oc1cccc(-c2cn3c(-c4cccc(CO)c4)cnc3cn2)c1` [compound 380, [3-[6-(3-isopropoxyphenyl)imidazo[1,2-a]pyrazin-3-yl]phenyl]methanol]: 20 to 50%.

As for `Clc1cccc(-c2ccc3nnc(-c4ccc5c(c4)OCO5)n3c2)c1` [compound 170, 3-(1,3-benzodioxol-5-yl)-6-(3-chlorophenyl)-[1,2,4]triazolo[4,3-a]pyridine], the Emax fell in the range of 20 to 50%. For `Clc1cccc(-c2nnc3ccc(-c4cncnc4)cn23)c1` [compound 203, 3-(3-chlorophenyl)-6-pyrimidin-5-yl-[1,2,4]triazolo[4,3-a]pyridine], the Emax fell in the range of 20 to 50%. As to `NC(=O)c1ccc(-c2cnc3ccc(Cc4ccc(F)c(F)c4)nn23)cc1` [compound 145, 4-[6-[(3,4-difluorophenyl)methyl]imidazo[1,2-b]pyridazin-3-yl]benzamide], the Emax lay in the range of 20 to 50%. `COc1cncc(-c2ccc3nnc(-c4cccc(OC(F)(F)F)c4)n3c2)c1` [compound 192, 6-(5-methoxy-3-pyridyl)-3-[3-(trifluoromethoxy)phenyl]-[1,2,4]triazolo[4,3-a]pyridine] came in with an Emax of 50 to 100%. Next, `COc1ccc(-c2nnc3ccc(-c4cccc(C(=O)N(C)C)c4)cn23)cc1OC` [compound 188, 3-[3-(3,4-dimethoxyphenyl)-[1,2,4]triazolo[4,3-a]pyridin-6-yl]-N,N-dimethyl-benzamide]: 50 to 100%; `Oc1cccc(-c2cnc3cnc(-c4ccc(Cl)cc4)cn23)c1` [compound 365, 3-[6-(4-chlorophenyl)imidazo[1,2-a]pyrazin-3-yl]phenol]: 20 to 50%. With `COCCNc1ccc2ncc(-c3ccc(C(=O)Nc4ccc(OC)cc4)cc3)n2n1` [compound 7, 4-[6-(2-methoxyethylamino)imidazo[1,2-b]pyridazin-3-yl]-N-(4-methoxyphenyl)benzamide], the Emax is 20 to 50%. In turn, `CN(C)c1cccc(-c2cn3c(NC(=O)c4ccccc4)cnc3cn2)c1` [compound 268, N-[6-[3-(dimethylamino)phenyl]imidazo[1,2-a]pyrazin-3-yl]benzamide] displayed an Emax of 50 to 100%.

`CN(C)C(=O)c1cccc(-c2ccc3nnc(-c4ccc5nccnc5c4)n3c2)c1` [compound 246, N,N-dimethyl-3-(3-quinoxalin-6-yl-[1,2,4]triazolo[4,3-a]pyridin-6-yl)benzamide] came in with an Emax of 50 to 100%. For the compound `Clc1cccc(-c2nnc3ccc(-c4ccncc4)cn23)c1` [compound 199, 3-(3-chlorophenyl)-6-(4-pyridyl)-[1,2,4]triazolo[4,3-a]pyridine], the Emax fell in the range of 50 to 100%. With `O=C(O)CCc1ccc(-c2cnc3cnc(-c4cccc(Cl)c4)cn23)cc1` [compound 329, 3-[4-[6-(3-chlorophenyl)imidazo[1,2-a]pyrazin-3-yl]phenyl]propanoic acid] the figure was 20 to 50%; with `c1ccc(Oc2ccccc2-c2cn3c(-c4ccncc4)cnc3cn2)cc1` [compound 311, 6-(2-phenoxyphenyl)-3-(4-pyridyl)imidazo[1,2-a]pyrazine], 20 to 50%. Take `CN(C)c1cccc(-c2ccc3ncc(-c4cccs4)n3n2)c1` [compound 155, N,N-dimethyl-3-[3-(2-thienyl)imidazo[1,2-b]pyridazin-6-yl]aniline]: the Emax fell in the range of 20 to 50%.

`Oc1cccc(-c2ccc3ncc(-c4cccc(C(F)(F)F)c4)n3n2)c1` [compound 135, 3-[3-[3-(trifluoromethyl)phenyl]imidazo[1,2-b]pyridazin-6-yl]phenol] yielded an Emax of 20 to 50%. For the compound `c1csc(-c2cn3c(-c4ccncc4)cnc3cn2)c1` [compound 314, 3-(4-pyridyl)-6-(2-thienyl)imidazo[1,2-a]pyrazine], the Emax fell in the range of 20 to 50%. On to `OCc1ccc(-c2cn3c(-c4cccs4)cnc3cn2)cc1` [compound 422, [4-[3-(2-thienyl)imidazo[1,2-a]pyrazin-6-yl]phenyl]methanol], for which the Emax is 20 to 50%. Regarding `Cc1cccc(-c2cnc3cccnn23)c1` [compound 84, 3-(m-tolyl)imidazo[1,2-b]pyridazine], the Emax fell in the range of 10 to 20%.

As to `Fc1cccc(-c2cnc3cnc(-c4ccc5c(c4)OCO5)cn23)c1` [compound 386, 6-(1,3-benzodioxol-5-yl)-3-(3-fluorophenyl)imidazo[1,2-a]pyrazine], the Emax was in the range of 20 to 50%.

As to `COc1cccc(-c2ccc3ncc(-c4cccc(Cl)c4)n3n2)c1` [compound 126, 3-(3-chlorophenyl)-6-(3-methoxyphenyl)imidazo[1,2-b]pyridazine], the Emax lay in the range of 10 to 20%. With `CN(C)c1cccc(-c2cnc3cnc(-c4ccncc4)cn23)c1` [compound 342, N,N-dimethyl-3-[6-(4-pyridyl)imidazo[1,2-a]pyrazin-3-yl]aniline] the figure was 20 to 50%; with `Cc1cc(-c2cn3c(-c4ccncc4)cnc3cn2)cc(C)c1O` [compound 312, 2,6-dimethyl-4-[3-(4-pyridyl)imidazo[1,2-a]pyrazin-6-yl]phenol], 20 to 50%. The compound `Oc1cccc(-c2cnc3cnc(-c4cc5ccccc5s4)cn23)c1` [compound 364, 3-[6-(benzothiophen-2-yl)imidazo[1,2-a]pyrazin-3-yl]phenol] registered an Emax of 50 to 100%.

In turn, `c1nc(-c2nnc3ccc(-c4ccc(N5CCOCC5)cc4)cn23)cs1` [compound 226, 4-[4-(3-thiazol-4-yl-[1,2,4]triazolo[4,3-a]pyridin-6-yl)phenyl]morpholine] returned an Emax of 50 to 100%.

Compound `COc1cc(-c2cnc3cnc(-c4ccc(N5CCN(C)CC5)nc4)cn23)ccc1O` [compound 393, 2-methoxy-4-[6-[6-(4-methylpiperazin-1-yl)-3-pyridyl]imidazo[1,2-a]pyrazin-3-yl]phenol] registered an Emax of 20 to 50%. `Cn1cc(-c2cnc3cnc(-c4cc5ccccc5s4)cn23)cn1` [compound 439, 6-(benzothiophen-2-yl)-3-(1-methylpyrazol-4-yl)imidazo[1,2-a]pyrazine] came in with an Emax of 20 to 50%. `Cn1ccc2cc(-c3cn4c(-c5ccc6ncccc6c5)cnc4cn3)ccc21` [compound 443, 6-[6-(1-methylindol-5-yl)imidazo[1,2-a]pyrazin-3-yl]quinoline] registered an Emax of at least 100%.

In the case of `NC(=O)c1cccc(-c2ccc3nnc(-c4cscn4)n3c2)c1` [compound 230, 3-(3-thiazol-4-yl-[1,2,4]triazolo[4,3-a]pyridin-6-yl)benzamide], the Emax is 20 to 50%. For `c1csc(-c2ccc3nnc(-c4ccoc4)n3c2)c1` [compound 221, 3-(3-furyl)-6-(2-thienyl)-[1,2,4]triazolo[4,3-a]pyridine], the Emax fell in the range of 50 to 100%. Turning to `O=C(NCCO)c1cccc(-c2cn3c(-c4cccc(OC(F)(F)F)c4)cnc3cn2)c1` [compound 353, N-(2-hydroxyethyl)-3-[3-[3-(trifluoromethoxy)phenyl]imidazo[1,2-a]pyrazin-6-yl]benzamide], the Emax lay in the range of 20 to 50%.

`CN(C)c1ccccc1-c1cn2c(-c3cccs3)cnc2cn1` [compound 413, N,N-dimethyl-2-[3-(2-thienyl)imidazo[1,2-a]pyrazin-6-yl]aniline] came in with an Emax of 20 to 50%. `CNC(=O)c1cccc(-c2ccc3nnc(-c4ccc5c(c4)OCO5)n3c2)c1` [compound 175, 3-[3-(1,3-benzodioxol-5-yl)-[1,2,4]triazolo[4,3-a]pyridin-6-yl]-N-methyl-benzamide] displayed an Emax of 20 to 50%. On to `Oc1cccc(-c2ccc3nnc(-c4ccccn4)n3c2)c1` [compound 247, 3-[3-(2-pyridyl)-[1,2,4]triazolo[4,3-a]pyridin-6-yl]phenol], for which the Emax is 50 to 100%. Take `COc1ccc(-c2cnc3cnc(-c4ccc(CO)cc4)cn23)cc1` [compound 361, [4-[3-(4-methoxyphenyl)imidazo[1,2-a]pyrazin-6-yl]phenyl]methanol]: the Emax lay in the range of 50 to 100%. Regarding `COc1ccc(-c2ccc3nnc(-c4ccoc4)n3c2)cc1` [compound 220, 3-(3-furyl)-6-(4-methoxyphenyl)-[1,2,4]triazolo[4,3-a]pyridine], the Emax is 50 to 100%. As for `COc1ccc(-c2ccc3nnc(-c4ccc(OCCCN(C)C)cc4)n3c2)cc1OC` [compound 236, 3-[4-[6-(3,4-dimethoxyphenyl)-[1,2,4]triazolo[4,3-a]pyridin-3-yl]phenoxy]-N,N-dimethyl-propan-1-amine], the Emax is 50 to 100%.

In the case of `CS(=O)(=O)Nc1cccc(-c2ccc3nnc(-c4ccccc4)n3c2)c1` [compound 169, N-[3-(3-phenyl-[1,2,4]triazolo[4,3-a]pyridin-6-yl)phenyl]methanesulfonamide], the Emax was 50 to 100%. Compound `COc1cc(OC)cc(-c2cnc3cnc(-c4ccccc4N(C)C)cn23)c1` [compound 436, 2-[3-(3,5-dimethoxyphenyl)imidazo[1,2-a]pyrazin-6-yl]-N,N-dimethylaniline] showed an Emax of 20 to 50%.

Compound `CC(=O)Nc1cccc(-c2ccc3nnc(-c4ccccc4)n3c2)c1` [compound 165, N-[3-(3-phenyl-[1,2,4]triazolo[4,3-a]pyridin-6-yl)phenyl]acetamide] came in with an Emax of 50 to 100%. Take `COc1cccc(C#Cc2ccc3nnc(-c4cccc(OC(F)(F)F)c4)n3c2)c1` [compound 194, 6-[2-(3-methoxyphenyl)ethynyl]-3-[3-(trifluoromethoxy)phenyl]-[1,2,4]triazolo[4,3-a]pyridine]: the Emax was in the range of 20 to 50%.

The record behind these values is EP2818471A1, “Nitrogen bicyclic compounds as inhibitors for Scyl1 and Grk5” (Max-Planck-Gesellschaft zur Förderung der Wissenschaften …, priority 2013, dated 2014).
